Assay results: PMC3433414, “Oral Administration of the Pimelic Diphenylamide HDAC Inhibitor HDACi 4b Is Unsuitable for Chronic Inhibition of HDAC Activity in the CNS In Vivo” (PLoS ONE, 2012)
Entries after “also recorded” stand apart in the source; their conditions may differ.

Legend:
[1] = tested on: endogenous Class I HDACs/HDAC6; test: Cellular HDAC assay, Boc_Lys_Ac substrate, Jurkat E6.1 cells; assay type: cell-based; settings: up to 50 µM; 5 h incubation
Method: Briefly, Jurkat E6.1 cells (obtained from the European Collection of Cell Cultures (ECACC)) were plated into 384 well plates at 75,000 cells/well in cellular assay buffer (RPMI without phenol red, 0.1% Fetal Bovine Serum, 10 mM HEPES, 1 mM Sodium Pyruvate). […] Fluorescent counts were read the following morning on the Perkin Elmer EnVision.
Each compound was tested in duplicate in concentration-response format on 3 separate days. […] A full dose response of reference compound was always included alongside the profiling, to ensure that assay parameters remained within acceptable limits.

HDACs = test: Biochemical HDAC assays (whole panel); design: species or system human; settings: up to 50 µM
Description: To assess the biochemical and cellular potency of 4b and its conversion products/metabolites, we utilized the two-step fluorogenic assay which measures the HDAC-mediated catalytic conversion of synthetic acetylated lysine substrates. In brief, on deacetylation of the substrates by HDAC activity, a protease site is unmasked which allows subsequent trypsin-mediated cleavage and release of the highly flourescent AMC molecules in a subsequent step of the assay. The substrates used were Lys_Ac_AMC (Bachem I-1875) for HDAC3 and (Ac)Arg-Gly-Lys(Ac) (Bachem I-1925) for HDAC1 and HDAC2. […] However, the relatively labile and sterically more demanding trifluoracetyl group is readily hydrolyzed by the catalytically less avid Class IIa enzymes, allowing measurement of Class IIa activity using the 2-step fluorogenic assay. […]
For evaluation of the class selectivity of the compounds, we assessed inhibition against purified recombinant human full length HDAC1 (cat# 50051), HDAC2 (cat# 50052), HDAC3-NcoR2 (cat# 50003) and HDAC8 (cat# 50008): as representative of Class I activity; catalytic domain HDAC4(αα 648–1057), HDAC5 (αα 657–1123; cat # 50005), HDAC7 (αα 518-end; cat # 50007) and HDAC9 (αα 604–1066; cat # 50009) activity: representing all Class IIa activity; and full length HDAC6 (cat#50006): representing Class IIb activity. […]

Plasma stability = assay type: in vitro ADME, mouse; settings: mouse plasma
Method: Incubations of test compound (5 µM initial concentration, n = 2) were carried out with pooled mouse plasma or BSA (45 mg/mL in 0.1 M phosphate buffered saline). The incubations were performed at 37°C. Samples (50 µL) were obtained from the incubation at 0, 10, 30, 120, 240, 360 and 1440 min, and added to 150 µL of acetonitrile containing carbamazepine as analytical internal standard to terminate the reaction. Samples were centrifuged and the supernatant fractions analysed by LC-MS/MS.
For half-life determinations, the instrument responses (peak areas) normalized for internal standard response, were referenced to the zero time-point samples (as 100%) in order to determine the percentage of compound remaining. Ln plots of the % remaining, for each compound, were used to determine the half-life for the plasma incubations. Half-life values were calculated from the relationship:-. [drawing 1] Where λ was the slope of the natural logarithmic (Ln) concentration vs time curve.
When quantification was required, calibration standards for parent compound and metabolites were prepared in control plasma and extracted and analysed as described for the study samples. Quantification of parent compound or metabolite was by extrapolation from the calibration line.

[2] = Solubility in water, formulations and DMSO; assay type: physicochemical
Method: (§1) Thomas and colleagues reported that a solution of 4b at 1 mg/mL was previously obtained using this procedure. […] We therefore prepared both TFA and hydrochloride (HCl) salts of 4b to establish whether they could offer improved solubility. Neither salt form of 4b was particularly soluble in water (<1 mg/ml). […] A study of the stability of the TFA salt also raised another more worrying issue in the use of 2-hydroxypropyl-β-cyclodextrin–complexed 4b salts for potential in vivo studies. […] The 4b. TFA cyclodextrin suspension targeted at 1 mg/ml with heating gave an initial (day 1) measured value of 0.75 mg/ml total 4b, with only 0.27 mg/mL solubilised as quantified in the sample after filtration. The lower than expected initial quantification of 4b was most likely due to the TFA salt rapidly degrading upon heating. Indeed, we always found the presence of the cyclised benzimidazole conversion product, named throughout as product C1, in the salt formulations even at t = 0 after preparation. Furthermore, the suspension was not stable upon standing in the dark with gentle shaking at room temperature, with a further 28% decrease observed in parent (4b) concentration on day 7 analysis, compared to day 1.
As a consequence de novo formulation attempts were made with the stable free base form. After several trials with different excipients, we were able to reach a soluble formulation preparation of 1 mg/ml 4b in 2% N-methyl-2-pyrollidone, 18% polyethylene glycol 400, 10% solutol HS-15 and 70% (1% Lutrol F68 in water), a vehicle which we have previously used without any adverse effects in R6/2 model chronic efficacy trials, but is unlikely to be palatable to mice in drinking water. With this concentration, a single oral gavage dose will result in a maximum of 10 mg/kg dose level (assuming a maximum dose volume of […]), considerably lower than that estimated to have been used by Thomas et al (150 mg/kg day in drinking water). In an attempt to replicate the original dose level as close as possible, it became necessary to formulate the test compound in suspension. We achieved a stable homogeneous suspension of free base 4b up to 100 mg/ml in 0.5% carboxymethylcellulose (medium viscosity) in reverse osmosis deionized (RODI) water. This suspension was used to evaluate the oral pharmacokinetics of 4b in mice. […]

[3] = Chemical stability in formulation or solution; assay type: physicochemical
Method: as §1, with “TFA cyclodextrin suspension targeted at 1 mg/ml with heating gave an initial (day 1) measured value of 0.75 mg/ml total 4b, with only 0.27 mg/mL solubilised as quantified in the sample after filtration.” left out
According to Thomas et al, verification of an acute pharmacodynamic response (the reversal of transcriptional dysregulation in the R6/2 model) was achieved by the repeated once daily injection of 150 mg/kg 4b in 50∶50 DMSO: PBS for three consecutive days. […] The lack of any pharmacodynamic response predictive of central Class I HDAC inhibition when 4b was dosed orally at 150 mg/kg twice daily for 5 days confirmed this prediction.

[4] = Solubility in water, formulations and DMSO; assay type: physicochemical; settings: cyclodextrin formulation prepared without heating
FXN = tested on: FXN; design: method as in PMID 16921367; settings: at the concentration tested; cited from earlier work
HDAC3-NcoR2 = molecular target: T1, HDAC3-NcoR2 (Homo sapiens, UniProt O15379); test: Two-step fluorogenic deacetylase assay, recombinant HDAC3; assay type: biochemical; settings: standard 1 h pre-incubation conditions
T1 construct: purified recombinant human full length HDAC1 (cat# 50051), HDAC2 (cat# 50052), HDAC3-NcoR2 (cat# 50003); purchased BPS Bioscience (San Diego, CA) 50003
T1 sequence (O15379 whole entry): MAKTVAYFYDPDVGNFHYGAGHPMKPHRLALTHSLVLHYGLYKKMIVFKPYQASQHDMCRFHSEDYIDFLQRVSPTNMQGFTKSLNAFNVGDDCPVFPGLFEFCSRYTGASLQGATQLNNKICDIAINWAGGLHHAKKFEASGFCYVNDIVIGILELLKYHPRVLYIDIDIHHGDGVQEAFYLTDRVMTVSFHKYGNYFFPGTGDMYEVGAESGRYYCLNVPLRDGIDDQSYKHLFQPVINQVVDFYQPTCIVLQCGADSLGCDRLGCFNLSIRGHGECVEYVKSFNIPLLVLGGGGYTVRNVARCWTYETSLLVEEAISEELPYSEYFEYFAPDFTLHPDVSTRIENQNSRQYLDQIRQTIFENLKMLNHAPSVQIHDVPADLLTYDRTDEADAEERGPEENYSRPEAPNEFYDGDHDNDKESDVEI
T1 sequence (Q9Y618 395-489 partner limits assumed): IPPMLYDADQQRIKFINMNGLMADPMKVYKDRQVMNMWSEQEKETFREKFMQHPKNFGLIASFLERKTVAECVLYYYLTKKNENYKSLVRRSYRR
Method: As described, the length of compound-enzyme incubation has been reported to be critical for this class of HDAC inhibitors, where a unique time-dependent increase in affinity and subsequent potency has been observed [36]–[38]. […] To better mimic physiological conditions, our experiments were performed at 37°C as opposed to room temperature as reported in previous studies. […] To confirm that this shift was independent of the time of 4b in aqueous solution, 4b was applied immediately to the enzyme-substrate mix both after preparing in aqueous buffer, and 120 min after preparation.
To assess the biochemical and cellular potency of 4b and its conversion products/metabolites, we utilized the two-step fluorogenic assay which measures the HDAC-mediated catalytic conversion of synthetic acetylated lysine substrates. In brief, on deacetylation of the substrates by HDAC activity, a protease site is unmasked which allows subsequent trypsin-mediated cleavage and release of the highly flourescent AMC molecules in a subsequent step of the assay. The substrates used were Lys_Ac_AMC (Bachem I-1875) for HDAC3 and (Ac)Arg-Gly-Lys(Ac) (Bachem I-1925) for HDAC1 and HDAC2. The final substrates used for each enzyme assessment were carefully selected after assessing the catalytic turnover of each of these substrates against HDAC1, HDAC2 and HDAC3 respectively, and selecting the ones that performed best. To assess Class IIa enzyme activity (HDAC4, 5, 7, 9) and Class I HDAC8 activity, we used the alternative substrate Boc_Lys_TFA (Bachem I-1985), equivalent to substrate 4 of [42]. Class IIa HDACs have approximately 1000-fold less catalytic activity than Class 1 enzymes, and show only extremely low turnover of acetylated substrates due to a Tyr to His mutation in the active site. However, the relatively labile and sterically more demanding trifluoracetyl group is readily hydrolyzed by the catalytically less avid Class IIa enzymes, allowing measurement of Class IIa activity using the 2-step fluorogenic assay. Intriguingly the Boc_Lys_TFA substrate seems to show almost total selectivity for Class IIa enzymes over class I and Class IIb enzymes, with the exception of HDAC8 ([42], and internal data).
For evaluation of the class selectivity of the compounds, we assessed inhibition against purified recombinant human full length HDAC1 (cat# 50051), HDAC2 (cat# 50052), HDAC3-NcoR2 (cat# 50003) and HDAC8 (cat# 50008): as representative of Class I activity; catalytic domain HDAC4(αα 648–1057), HDAC5 (αα 657–1123; cat # 50005), HDAC7 (αα 518-end; cat # 50007) and HDAC9 (αα 604–1066; cat # 50009) activity: representing all Class IIa activity; and full length HDAC6 (cat#50006): representing Class IIb activity. With the exception of purified catalytic domain HDAC4, which was prepared for us by Emerald Biosciences (Seattle, WA), all HDAC enzymes were purchased from BPS Bioscience (San Diego, CA).
Unless otherwise stated in the text, assays were run in the following format in 384-well plates using automated liquid handling procedures. Briefly, frozen enzyme stock and compounds were diluted in assay buffer (50 mM Tris-HCl, 137 mM NaCl, 2.7 mM KCl, 1 mM MgCl2 at pH 8.0) and added to plates at concentrations sufficient to achieve a 16-point concentration-response curve from 50 µM to 1 nM at 1% DMSO final concentration, after addition of all reagents. Substrate diluted in assay buffer was then added and plates were incubated after brief shaking for 60 min at 37°C. Following incubation, a developer/stop-step was introduced to terminate the reaction and cleave the fluorescent substrate: either the addition of trypsin with 10 µM Compound 26 [44] for the Class IIa enzymes, or trypsin with 5 µM Trichostatin A (TSA) for the Class I/IIb enzymes. Plates were briefly shaken and then returned to the incubator for a further 60 min, followed by measurement of fluorescence per well (Ex 355 nm, Em 460 nm) on a Perkin Elmer EnVision. […]

[5] = Hepatic microsomal stability; assay type: in vitro ADME, mouse; settings: mouse hepatic microsomes; parent 4b
Method: Incubations of test compounds (1 µM initial concentration, n = 2) were carried out with pooled hepatic microsomes (0.25 mg protein/mL in 0.1 M phosphate buffer pH 7.4). NADPH (1 mM) was added to initiate the reactions. The incubations were performed at 37°C. Samples (100 µL) were taken from the incubation at 0, 5, 10, 20 and 40 min and added to 100 µL of acetonitrile containing carbamazepine as analytical internal standard, to terminate the reaction. Samples were centrifuged and the supernatant fractions analysed by LC-MS/MS. The instrument responses (i.e. chromatographic peak heights), normalized by internal standard response were referenced to the zero time-point samples (as 100%) in order to determine the percentage of compound remaining.
Ln plots of the % remaining, for each compound, were used to determine the half-life for the microsomal incubations.
Half-life values were calculated from the relationship. [drawing 2] where λ was the slope of the Ln concentration vs time curve.
The in vitro intrinsic clearance, CLint (µL/min/mg microsomal protein), was calculated using the following formula: [drawing 3]
When quantification was required, calibration standards for parent compound and metabolites were prepared in control hepatic microsomes and extracted and analysed as described for the study samples. Quantification of parent compound or metabolite was by extrapolation from the calibration line.

[6] = cyclodextrin suspension targeted at 1 mg/ml, with heating

O=C(O)CCCCCc1nc2ccccc2[nH]1 [Compound M3]
activity in the Class I cellular HDAC (Boc_Lys_Ac) assay [1]: inactive
activity in the biochemical HDAC assays (HDACs): inactive
share of the metabolism of parent accounted for by metabolite (Plasma stability; parent C1): 80%

Cc1ccc(NC(=O)CCCCCC(=O)Nc2ccccc2N)cc1.O=C(O)C(F)(F)F [4b. TFA]
4b solubilised (after filtration), day 1 [2, 6]: 0.27 mg/mL
total 4b measured in suspension, day 1 [2, 6]: 0.75 mg/mL
solubility in DMSO ([2]; prepared at 1 mg/ml): soluble
solubility in water ([2]; salt forms): < 1000 µg/mL
day 7 value as % of value at day 1 ([3]; 1 mg/ml in DMSO): 59%
decrease in parent (4b) concentration, day 7 compared to day 1 ([3]; cyclodextrin suspension, dark, gentle shaking, room temperature): 28%
cyclisation to benzimidazole product in solution ([3]; eg. aqueous acetonitrile, ambient temperature, more rapidly when heated): cyclised slowly
4b dissolved (filtrate of suspension) [4]: 0.3 mg/mL

BML-210 [reference compound]
effect on FXN mRNA (FXN): increase FXN mRNA without cytotoxicity

Nc1ccccc1NC(=O)CCCCCC(=O)O [Compound M1]
IC50 (HDAC3-NcoR2): 26 µM
activity in the Class I cellular HDAC (Boc_Lys_Ac) assay [1]: totally inactive; also recorded: neither inhibits HDACs
share of the metabolism of parent accounted for by metabolite (Plasma stability; parent 4b): 78%
share of the metabolism of parent accounted for by metabolite [5]: 42%
